Test results taken from the NIST ThermoML archive (doi:10.1021/je060271a).

Details: 343.15 K, Liquid, Vibrating tube method

CCCCC(=O)OCC(COC(=O)CCCC)(COC(=O)CCCC)COC(=O)CCCC [pentaerythritol tetrapentanoate]
Details	mass density [kg/m3]
5413.1 kPa	982.8
5435 kPa	982.7
5461.9 kPa	982.8
5505.6 kPa	982.8
5528.3 kPa	982.7
5555.3 kPa	982.9
5578.3 kPa	982.9
5601.1 kPa	982.8
5652.8 kPa	983
6775.7 kPa	983.7
6868.5 kPa	983.8
7157.9 kPa	984.1
7189.4 kPa	984.1
7222 kPa	984.1
7362.2 kPa	984.3
7507.8 kPa	984.3
7543.3 kPa	984.3
7586.1 kPa	984.4
7622 kPa	984.5
7658.5 kPa	984.4
7695.9 kPa	984.5
7740.8 kPa	984.5
7779.3 kPa	984.5
7819 kPa	984.5
7858.9 kPa	984.6
7901.3 kPa	984.7
7933.4 kPa	984.7
7965.2 kPa	984.7
7997.4 kPa	984.8
8035.4 kPa	984.7
8067.7 kPa	984.8
8100.4 kPa	984.6
8139.1 kPa	984.8
8172.2 kPa	984.9
8205.9 kPa	984.8
8240 kPa	984.8
8280.4 kPa	985
8314.6 kPa	984.8
8349.6 kPa	985
8390.6 kPa	985.1
8425.6 kPa	985
8461.4 kPa	985
8504.7 kPa	985.1
8540.9 kPa	985
8577.6 kPa	985.2
8620.4 kPa	985.2
8653.7 kPa	985.2
8686.4 kPa	985.2
8725.9 kPa	985.3
8759 kPa	985.2
8793.5 kPa	985.3
8834.4 kPa	985.3
8868.3 kPa	985.2
8902.8 kPa	985.3
8937.8 kPa	985.4
8979.2 kPa	985.4
9014.2 kPa	985.4
9057.6 kPa	985.5
9093 kPa	985.5
9128.9 kPa	985.5
9165.6 kPa	985.6
9210.7 kPa	985.6
9247.8 kPa	985.6
9284.8 kPa	985.6
9330.2 kPa	985.6
9369.1 kPa	985.6
9408.2 kPa	985.8
9447.9 kPa	985.6
9495.3 kPa	985.9
9536.5 kPa	985.8
9579.2 kPa	985.9
9627.1 kPa	985.8
9659.1 kPa	985.9
9689.8 kPa	986
9720.2 kPa	986
9749.7 kPa	986
9785.3 kPa	986
9815.5 kPa	986.1
9845.4 kPa	986.1
9881.3 kPa	986.2
9911.4 kPa	986.2
9942.4 kPa	986.2
9979.5 kPa	986.2
10011 kPa	986.2
10043 kPa	986.1
10082 kPa	986.4
10117 kPa	986.1
10149 kPa	986.3
10181 kPa	986.3
10213 kPa	986.3
10252 kPa	986.3
10284 kPa	986.3
10318 kPa	986.4
10358 kPa	986.4
10391 kPa	986.4
10425 kPa	986.5
10465 kPa	986.6
10500 kPa	986.5
10535 kPa	986.6
10577 kPa	986.5
10612 kPa	986.6
10647 kPa	986.6
10690 kPa	986.5
10726 kPa	986.8
10762 kPa	986.7
10806 kPa	986.8
10842 kPa	986.8
10879 kPa	986.8
10923 kPa	986.9
10960 kPa	986.9
10999 kPa	986.9
11045 kPa	986.9
11084 kPa	987
11122 kPa	987.1
11162 kPa	986.9
11209 kPa	987
11248 kPa	987.2
11296 kPa	987.1
11336 kPa	987.2
11377 kPa	987.2
11417 kPa	987.2
11467 kPa	987.3
11508 kPa	987.3
11551 kPa	987.4
11602 kPa	987.3
11645 kPa	987.3
11689 kPa	987.4
11740 kPa	987.4
11784 kPa	987.5
11828 kPa	987.4
11881 kPa	987.6
11926 kPa	987.6
11972 kPa	987.7
12028 kPa	987.6
12076 kPa	987.7
12126 kPa	987.7
12187 kPa	987.8
12237 kPa	987.9
12270 kPa	988
12298 kPa	987.8
12322 kPa	987.9
12346 kPa	987.8
12374 kPa	988
12398 kPa	987.9
12423 kPa	988
12452 kPa	987.9
12476 kPa	988.1
12501 kPa	988.1
12530 kPa	988
12555 kPa	988
12580 kPa	988
12610 kPa	988
12636 kPa	988
12660 kPa	988.1
12691 kPa	988.1
12717 kPa	988.2
12742 kPa	988.1
12773 kPa	988.2
12799 kPa	988.2
12824 kPa	988.3
12856 kPa	988.3
